According to patent EP4745135A1 (Gluetacs Therapeutics (Shanghai) Co., Ltd., priority 2023, dated 2025):
Blank lines part the entries; values can stand above or below the compound they belong to.

Tests used:
[1] = molecular target: T1, human Cereblon WT GST-tagged protein (Homo sapiens, UniProt Q96SW2); test: CRBN-binding affinity, HTRF (CEREBLON BINDING kit); conditions: for inhibition at 0.5 µM: read-out: Inhibition Rate at 0.5 µM (%); for inhibition at 2 µM: read-out: Inhibition Rate at 2 µM (%)
T1 construct: purchased CISBIO 64BDCRBNPEH

GSPT1 = test: Western blot, degradation of substrate protein in hPBMCs; type: cell-based, Human
IKZF2 = molecular target: T2, IKZF2 (Homo sapiens, UniProt Q96SW2+Q9UKS7); test: as above; type: cell-based
T2 construct: effects of the compounds of the present disclosure on the expression of target proteins in cells; endogenous in cells; host or cells: human PBMCs (Milecell Biotechnologies)

IKZF3 = molecular target: T3, IKZF3 (Homo sapiens, UniProt Q96SW2+Q9UKT9); test: as above; type: cell-based
T3 construct: effects of the compounds of the present disclosure on the expression of target proteins in cells; endogenous in cells; host or cells: human PBMCs (Milecell Biotechnologies)

WEE1 = molecular target: T4, WEE1 (Homo sapiens, UniProt P30291+Q96SW2); test: as above; type: cell-based
T4 construct: effects of the compounds of the present disclosure on the expression of target proteins in cells; endogenous in cells; host or cells: human PBMCs (Milecell Biotechnologies)

CK1α = molecular target: T5, CK1α (Homo sapiens, UniProt P48729+Q96SW2); test: as above; type: cell-based
T5 construct: effects of the compounds of the present disclosure on the expression of target proteins in cells; endogenous in cells; host or cells: human PBMCs (Milecell Biotechnologies)

IKZF1 = molecular target: T6, IKZF1 (Homo sapiens, UniProt Q13422+Q96SW2); test: as above; type: cell-based
T6 construct: effects of the compounds of the present disclosure on the expression of target proteins in cells; endogenous in cells; host or cells: human PBMCs (Milecell Biotechnologies)

[2] = 24 hours treatment, compounds at 50 nM and 500 nM (concentration behind the class not stated)
[3] = Western blot, 24 hours of compound treatment, compounds tested at 50 nM and 500 nM (concentration for the table not stated)

T3 sequence (Q9UKT9 whole entry): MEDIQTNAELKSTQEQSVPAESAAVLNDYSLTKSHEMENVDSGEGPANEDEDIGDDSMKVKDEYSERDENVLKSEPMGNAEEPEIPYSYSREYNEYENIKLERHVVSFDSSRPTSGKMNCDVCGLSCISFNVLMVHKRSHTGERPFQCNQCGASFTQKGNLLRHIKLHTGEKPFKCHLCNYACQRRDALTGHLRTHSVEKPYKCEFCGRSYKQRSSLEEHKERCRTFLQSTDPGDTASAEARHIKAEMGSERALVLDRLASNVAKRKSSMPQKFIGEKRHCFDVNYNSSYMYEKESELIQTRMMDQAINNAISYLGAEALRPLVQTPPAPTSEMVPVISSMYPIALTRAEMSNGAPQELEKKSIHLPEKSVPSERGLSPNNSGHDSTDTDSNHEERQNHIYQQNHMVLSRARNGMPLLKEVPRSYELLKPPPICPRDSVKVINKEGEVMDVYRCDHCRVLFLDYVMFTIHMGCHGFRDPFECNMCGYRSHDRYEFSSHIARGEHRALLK
T3 sequence (Q96SW2 whole entry): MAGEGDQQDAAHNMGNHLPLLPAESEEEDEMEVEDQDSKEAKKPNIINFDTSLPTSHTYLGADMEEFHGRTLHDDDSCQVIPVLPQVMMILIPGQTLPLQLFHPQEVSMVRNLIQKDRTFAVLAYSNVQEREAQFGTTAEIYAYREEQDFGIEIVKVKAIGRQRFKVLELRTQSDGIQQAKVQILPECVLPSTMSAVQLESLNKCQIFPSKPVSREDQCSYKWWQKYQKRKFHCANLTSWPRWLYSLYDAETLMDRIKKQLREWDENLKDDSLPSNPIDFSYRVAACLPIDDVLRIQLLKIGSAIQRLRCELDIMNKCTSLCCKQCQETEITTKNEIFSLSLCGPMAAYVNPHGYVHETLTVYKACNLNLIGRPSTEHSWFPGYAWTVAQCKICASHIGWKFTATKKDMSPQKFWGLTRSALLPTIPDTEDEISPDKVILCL
T3 sequence (Q16531 whole entry partner): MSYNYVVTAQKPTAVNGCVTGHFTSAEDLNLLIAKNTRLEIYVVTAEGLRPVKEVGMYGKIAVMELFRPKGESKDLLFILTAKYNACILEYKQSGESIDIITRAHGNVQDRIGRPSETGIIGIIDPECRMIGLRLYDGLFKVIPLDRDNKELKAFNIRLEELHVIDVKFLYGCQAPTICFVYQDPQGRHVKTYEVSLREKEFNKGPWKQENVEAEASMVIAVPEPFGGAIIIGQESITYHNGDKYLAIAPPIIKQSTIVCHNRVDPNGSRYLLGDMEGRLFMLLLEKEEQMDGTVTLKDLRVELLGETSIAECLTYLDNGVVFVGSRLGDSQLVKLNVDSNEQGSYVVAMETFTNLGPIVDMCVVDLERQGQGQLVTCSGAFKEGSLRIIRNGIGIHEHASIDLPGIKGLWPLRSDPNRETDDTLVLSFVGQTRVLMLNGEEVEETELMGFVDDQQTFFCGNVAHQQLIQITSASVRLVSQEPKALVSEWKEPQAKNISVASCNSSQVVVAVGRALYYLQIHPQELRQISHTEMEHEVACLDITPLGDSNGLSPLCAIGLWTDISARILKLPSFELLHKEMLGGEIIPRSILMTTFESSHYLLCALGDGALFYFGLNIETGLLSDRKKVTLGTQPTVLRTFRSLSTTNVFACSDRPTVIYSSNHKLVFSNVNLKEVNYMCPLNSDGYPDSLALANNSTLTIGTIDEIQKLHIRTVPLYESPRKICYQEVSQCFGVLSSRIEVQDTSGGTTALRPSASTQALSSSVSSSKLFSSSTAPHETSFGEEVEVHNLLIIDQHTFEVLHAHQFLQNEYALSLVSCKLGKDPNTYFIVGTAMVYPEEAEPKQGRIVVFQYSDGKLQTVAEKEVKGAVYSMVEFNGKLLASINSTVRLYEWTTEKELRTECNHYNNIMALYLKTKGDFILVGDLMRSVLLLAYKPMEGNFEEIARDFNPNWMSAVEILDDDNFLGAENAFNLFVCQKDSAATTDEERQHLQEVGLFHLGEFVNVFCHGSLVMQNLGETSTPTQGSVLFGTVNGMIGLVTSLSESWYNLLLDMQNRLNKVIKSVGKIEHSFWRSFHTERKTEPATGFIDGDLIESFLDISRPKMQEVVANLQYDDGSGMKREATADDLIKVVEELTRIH
T1 sequence (Q96SW2 whole entry): as the sequence (Q96SW2 whole entry) above
T6 sequence (Q13422 whole entry): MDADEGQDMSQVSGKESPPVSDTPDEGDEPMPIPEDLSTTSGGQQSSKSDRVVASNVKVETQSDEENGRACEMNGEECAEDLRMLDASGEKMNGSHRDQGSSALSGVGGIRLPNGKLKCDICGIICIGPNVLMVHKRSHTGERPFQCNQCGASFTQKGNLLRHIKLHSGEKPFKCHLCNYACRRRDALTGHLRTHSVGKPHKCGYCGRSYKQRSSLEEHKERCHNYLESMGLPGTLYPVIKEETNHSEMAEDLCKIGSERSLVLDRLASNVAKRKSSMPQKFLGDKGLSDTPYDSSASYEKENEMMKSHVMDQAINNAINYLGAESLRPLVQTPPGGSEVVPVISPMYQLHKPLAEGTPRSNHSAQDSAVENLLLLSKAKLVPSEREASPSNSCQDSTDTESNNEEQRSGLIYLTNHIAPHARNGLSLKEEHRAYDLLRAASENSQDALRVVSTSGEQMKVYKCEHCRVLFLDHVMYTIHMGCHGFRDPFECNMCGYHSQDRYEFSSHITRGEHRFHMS
T6 sequence (Q96SW2 whole entry): as the sequence (Q96SW2 whole entry) above
T6 sequence (Q16531 whole entry partner): as the sequence (Q16531 whole entry partner) above
T5 sequence (P48729 whole entry): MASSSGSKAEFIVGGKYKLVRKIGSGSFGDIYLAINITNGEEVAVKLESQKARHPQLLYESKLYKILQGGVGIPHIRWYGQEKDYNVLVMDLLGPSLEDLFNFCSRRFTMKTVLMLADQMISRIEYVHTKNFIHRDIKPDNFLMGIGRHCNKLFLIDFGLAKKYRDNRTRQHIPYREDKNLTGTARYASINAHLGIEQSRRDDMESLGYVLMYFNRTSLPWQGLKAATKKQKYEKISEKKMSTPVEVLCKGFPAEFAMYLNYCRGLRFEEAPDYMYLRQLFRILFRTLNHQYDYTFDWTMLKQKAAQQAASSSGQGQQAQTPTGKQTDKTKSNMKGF
T5 sequence (Q96SW2 whole entry): as the sequence (Q96SW2 whole entry) above
T5 sequence (Q16531 whole entry partner): as the sequence (Q16531 whole entry partner) above
T2 sequence (Q9UKS7 whole entry): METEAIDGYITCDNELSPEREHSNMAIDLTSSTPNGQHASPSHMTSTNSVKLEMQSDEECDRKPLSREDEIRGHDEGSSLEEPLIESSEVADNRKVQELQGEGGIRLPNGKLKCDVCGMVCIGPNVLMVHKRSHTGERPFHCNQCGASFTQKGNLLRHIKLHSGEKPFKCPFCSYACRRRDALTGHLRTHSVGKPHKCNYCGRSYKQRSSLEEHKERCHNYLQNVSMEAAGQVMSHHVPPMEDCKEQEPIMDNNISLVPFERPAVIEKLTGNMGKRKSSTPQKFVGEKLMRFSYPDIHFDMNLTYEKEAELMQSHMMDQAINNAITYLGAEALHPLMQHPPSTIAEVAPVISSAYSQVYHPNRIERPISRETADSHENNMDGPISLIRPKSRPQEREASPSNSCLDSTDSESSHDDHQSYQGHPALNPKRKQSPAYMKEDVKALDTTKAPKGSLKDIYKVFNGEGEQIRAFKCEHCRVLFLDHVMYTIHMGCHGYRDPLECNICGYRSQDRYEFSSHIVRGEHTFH
T2 sequence (Q96SW2 whole entry): as the sequence (Q96SW2 whole entry) above
T2 sequence (Q16531 whole entry partner): as the sequence (Q16531 whole entry partner) above
T4 sequence (P30291 whole entry): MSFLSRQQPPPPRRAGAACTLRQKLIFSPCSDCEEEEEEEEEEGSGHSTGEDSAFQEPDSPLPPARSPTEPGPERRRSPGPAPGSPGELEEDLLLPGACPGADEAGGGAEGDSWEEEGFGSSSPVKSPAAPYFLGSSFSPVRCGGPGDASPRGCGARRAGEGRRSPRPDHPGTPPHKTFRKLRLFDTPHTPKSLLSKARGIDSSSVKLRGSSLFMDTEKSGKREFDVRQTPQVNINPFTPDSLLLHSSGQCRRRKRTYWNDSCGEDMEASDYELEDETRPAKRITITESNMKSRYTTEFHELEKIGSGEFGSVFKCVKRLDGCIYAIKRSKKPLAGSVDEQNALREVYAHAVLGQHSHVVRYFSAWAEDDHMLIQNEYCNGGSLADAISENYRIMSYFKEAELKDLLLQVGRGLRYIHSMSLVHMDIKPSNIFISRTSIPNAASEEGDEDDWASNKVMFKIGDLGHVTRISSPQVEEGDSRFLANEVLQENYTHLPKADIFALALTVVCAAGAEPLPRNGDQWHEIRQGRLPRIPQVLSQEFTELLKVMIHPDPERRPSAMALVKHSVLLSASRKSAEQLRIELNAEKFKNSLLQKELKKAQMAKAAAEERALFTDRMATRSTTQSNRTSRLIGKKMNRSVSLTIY
T4 sequence (Q96SW2 whole entry): as the sequence (Q96SW2 whole entry) above
T4 sequence (Q16531 whole entry partner): as the sequence (Q16531 whole entry partner) above

inhibition at 0.5 µM [1]: 40 to 53%
inhibition at 2 µM [1]: 80 to 100%
SMILES: O=C1CCC(N2Cc3cc(CN4CCN(c5ncc(C(F)(F)F)cc5Cl)CC4)ccc3C2=S)C(=O)N1 (stereo not shown) [GT-09228, 3-(5-((4-(3-chloro-5-(trifluoromethyl)pyridin-2-yl)piperazin-1-yl)methyl)-1-thioxoisoindolin-2-yl)piperidine-2,6-dione]
GSPT1 substrate protein remaining % (GSPT1; [3]): B (80%< substrate protein remaining %≤ 100%)
IKZF2 substrate protein remaining % (IKZF2; [3]): B (80%< substrate protein remaining %≤ 100%)
IKZF3 substrate protein remaining % (IKZF3; [3]): B (80%< substrate protein remaining %≤ 100%)
Wee1 substrate protein remaining % (WEE1; [3]): B (80%< substrate protein remaining %≤ 100%)
CK1α substrate protein remaining % (CK1α; [3]): A (0% ≤ substrate protein remaining % ≤ 80%)
IKZF 1 substrate protein remaining % (IKZF1; [3]): B (80%< substrate protein remaining %≤ 100%)

inhibition at 0.5 µM [1]: 40 to 53%
inhibition at 2 µM [1]: 80 to 100%
SMILES: O=C1CCC(N2Cc3c(CN4CCN(c5ncnc6sc7c(c56)CCCC7)CC4)cccc3C2=S)C(=O)N1 (stereo not shown) [GT-08924, 3-(4-((4-(5,6,7,8-tetrahydrobenzo[4,5]thieno[2,3-d]pyrimidin-4-yl)piperazin-1-yl)methyl)-1-thioxoisoindolin-2-yl)piperidine-2,6-dione]
GSPT1 substrate protein remaining % (GSPT1; [2]): B (80%< substrate protein remaining %≤ 100%)
IKZF2 substrate protein remaining % (IKZF2; [2]): A (0% ≤ substrate protein remaining % ≤ 80%)
IKZF3 substrate protein remaining % (IKZF3; [2]): B (80%< substrate protein remaining %≤ 100%)
Wee1 substrate protein remaining % (WEE1; [2]): A (0% ≤ substrate protein remaining % ≤ 80%)
CK1α substrate protein remaining % (CK1α; [2]): B (80%< substrate protein remaining %≤ 100%)
IKZF 1 substrate protein remaining % (IKZF1; [2]): B (80%< substrate protein remaining %≤ 100%)

inhibition at 0.5 µM [1]: 60 to 80%
inhibition at 2 µM [1]: 80 to 100%
SMILES: O=C1CCC(N2Cc3cc(CN4CCN(c5ccc(Cl)nc5)CC4)ccc3C2=S)C(=O)N1 (stereo not shown) [GT-09230, 3-(5-((4-(6-chloropyridin-3-yl)piperazin-1-yl)methyl)-1-thioxoisoindolin-2-yl)piperidine-2,6-dione]
GSPT1 substrate protein remaining % (GSPT1; [3]): A (0% ≤ substrate protein remaining % ≤ 80%)
IKZF2 substrate protein remaining % (IKZF2; [3]): B (80%< substrate protein remaining %≤ 100%)
IKZF3 substrate protein remaining % (IKZF3; [3]): B (80%< substrate protein remaining %≤ 100%)
Wee1 substrate protein remaining % (WEE1; [3]): B (80%< substrate protein remaining %≤ 100%)
CK1α substrate protein remaining % (CK1α; [3]): A (0% ≤ substrate protein remaining % ≤ 80%)
IKZF 1 substrate protein remaining % (IKZF1; [3]): B (80%< substrate protein remaining %≤ 100%)

Second part, the compound before the results:

SMILES: O=C1CCC(N2Cc3c(CN4CCN(c5ncnc6sccc56)CC4)cccc3C2=S)C(=O)N1 (stereo not shown) [GT-08912, 3-(4-((4-(thieno[2,3-d]pyrimidin-4-yl)piperazin-1-yl)methyl)-1-thioxoisoindolin-2-yl)piperidine-2,6-dione]
inhibition at 0.5 µM [1]: 60 to 80%
inhibition at 2 µM [1]: 80 to 100%
GSPT1 substrate protein remaining % (GSPT1; [2]): B (80%< substrate protein remaining %≤ 100%)
IKZF2 substrate protein remaining % (IKZF2; [2]): B (80%< substrate protein remaining %≤ 100%)
IKZF3 substrate protein remaining % (IKZF3; [2]): B (80%< substrate protein remaining %≤ 100%)
Wee1 substrate protein remaining % (WEE1; [2]): A (0% ≤ substrate protein remaining % ≤ 80%)
CK1α substrate protein remaining % (CK1α; [2]): B (80%< substrate protein remaining %≤ 100%)
IKZF 1 substrate protein remaining % (IKZF1; [2]): B (80%< substrate protein remaining %≤ 100%)

SMILES: Cc1cc2c(N3CCN(Cc4cccc5c4CN(C4CCC(=O)NC4=O)C5=S)CC3)ncnc2s1 (stereo not shown) [GT-08914, 3-(4-((4-(6-methylthieno[2,3-d]pyrimidin-4-yl)piperazin-1-yl)methyl)-1-thioxoisoindolin-2-yl)piperidine-2,6-dione]
inhibition at 0.5 µM [1]: 60 to 80%
inhibition at 2 µM [1]: 80 to 100%
GSPT1 substrate protein remaining % (GSPT1; [2]): B (80%< substrate protein remaining %≤ 100%)
IKZF2 substrate protein remaining % (IKZF2; [2]): B (80%< substrate protein remaining %≤ 100%)
IKZF3 substrate protein remaining % (IKZF3; [2]): B (80%< substrate protein remaining %≤ 100%)
Wee1 substrate protein remaining % (WEE1; [2]): A (0% ≤ substrate protein remaining % ≤ 80%)
CK1α substrate protein remaining % (CK1α; [2]): B (80%< substrate protein remaining %≤ 100%)
IKZF 1 substrate protein remaining % (IKZF1; [2]): B (80%< substrate protein remaining %≤ 100%)

SMILES: O=C1CCC(N2Cc3c(CN4CCN(c5nsc6ccccc56)CC4)cccc3C2=S)C(=O)N1 (stereo not shown) [GT-08366, 3-(4-((4-(benzo[d]isothiazol-3-yl)piperazin-1-yl)methyl)-1-thioxoisoindolin-2-yl)piperidine-2,6-dione]
inhibition at 0.5 µM [1]: 60 to 80%
inhibition at 2 µM [1]: 80 to 100%
GSPT1 substrate protein remaining % (GSPT1; [3]): B (80%< substrate protein remaining %≤ 100%)
IKZF2 substrate protein remaining % (IKZF2; [3]): B (80%< substrate protein remaining %≤ 100%)
IKZF3 substrate protein remaining % (IKZF3; [3]): B (80%< substrate protein remaining %≤ 100%)
Wee1 substrate protein remaining % (WEE1; [3]): A (0% ≤ substrate protein remaining % ≤ 80%)
CK1α substrate protein remaining % (CK1α; [3]): B (80%< substrate protein remaining %≤ 100%)
IKZF 1 substrate protein remaining % (IKZF1; [3]): B (80%< substrate protein remaining %≤ 100%)

SMILES: O=C1CCC(N2Cc3c(CN4CCN(c5ccnc(Cl)c5Cl)CC4)cccc3C2=S)C(=O)N1 (stereo not shown) [GT-08735, 3-(4-((4-(2,3-dichloropyridin-4-yl)piperazin-1-yl)methyl)-1-thioxoisoindolin-2-yl)piperidine-2,6-dione]
inhibition at 0.5 µM [1]: 60 to 80%
inhibition at 2 µM [1]: 80 to 100%
GSPT1 substrate protein remaining % (GSPT1; [3]): B (80%< substrate protein remaining %≤ 100%)
IKZF2 substrate protein remaining % (IKZF2; [3]): B (80%< substrate protein remaining %≤ 100%)
IKZF3 substrate protein remaining % (IKZF3; [3]): B (80%< substrate protein remaining %≤ 100%)
Wee1 substrate protein remaining % (WEE1; [3]): A (0% ≤ substrate protein remaining % ≤ 80%)
CK1α substrate protein remaining % (CK1α; [3]): B (80%< substrate protein remaining %≤ 100%)
IKZF 1 substrate protein remaining % (IKZF1; [3]): B (80%< substrate protein remaining %≤ 100%)

SMILES: O=C1CCC(N2Cc3c(CN4CCN(c5ncnc6sc(-c7ccccc7)cc56)CC4)cccc3C2=S)C(=O)N1 (stereo not shown) [GT-08919, 3-(4-((4-(6-phenylthieno[2,3-d]pyrimidin-4-yl)piperazin-1-yl)methyl)-1-thioxoisoindolin-2-yl)piperidine-2,6-dione]
inhibition at 0.5 µM [1]: 20 to 30%
inhibition at 2 µM [1]: 60 to 80%
GSPT1 substrate protein remaining % (GSPT1; [2]): B (80%< substrate protein remaining %≤ 100%)
IKZF2 substrate protein remaining % (IKZF2; [2]): B (80%< substrate protein remaining %≤ 100%)
IKZF3 substrate protein remaining % (IKZF3; [2]): B (80%< substrate protein remaining %≤ 100%)
Wee1 substrate protein remaining % (WEE1; [2]): A (0% ≤ substrate protein remaining % ≤ 80%)
CK1α substrate protein remaining % (CK1α; [2]): B (80%< substrate protein remaining %≤ 100%)
IKZF 1 substrate protein remaining % (IKZF1; [2]): B (80%< substrate protein remaining %≤ 100%)

SMILES: CC1(C)CCC(CN2C3CC2CN(Cc2ccc4c(c2)CN(C2CCC(=O)NC2=O)C4=S)C3)=C(c2ccc(Cl)cc2)C1 (stereo not shown) [GT-08161, 3-(5-((6-((4'-chloro-5,5-dimethyl-3,4,5,6-tetrahydro-[1,1'-biphenyl]-2-yl)methyl)-3,6-diazabicyclo[3.1.1]heptan-3-yl)methyl)-1-thioxoisoindolin-2-yl)piperidine-2,6-dione]
inhibition at 0.5 µM [1]: 40 to 53%
inhibition at 2 µM [1]: 80 to 100%
GSPT1 substrate protein remaining % (GSPT1; [2]): A (0% ≤ substrate protein remaining % ≤ 80%)
IKZF2 substrate protein remaining % (IKZF2; [2]): A (0% ≤ substrate protein remaining % ≤ 80%)
IKZF3 substrate protein remaining % (IKZF3; [2]): A (0% ≤ substrate protein remaining % ≤ 80%)
Wee1 substrate protein remaining % (WEE1; [2]): A (0% ≤ substrate protein remaining % ≤ 80%)
CK1α substrate protein remaining % (CK1α; [2]): B (80%< substrate protein remaining %≤ 100%)
IKZF 1 substrate protein remaining % (IKZF1; [2]): B (80%< substrate protein remaining %≤ 100%)

SMILES: O=C1CCC(N2Cc3c(CN4CCN(c5ncncn5)CC4)cccc3C2=S)C(=O)N1 (stereo not shown) [GT-08808, 3-(4-((4-(1,3,5-triazin-2-yl)piperazin-1-yl)methyl)-1-thioxoisoindolin-2-yl)piperidine-2,6-dione]
inhibition at 0.5 µM [1]: 60 to 80%
inhibition at 2 µM [1]: 80 to 100%
GSPT1 substrate protein remaining % (GSPT1; [3]): B (80%< substrate protein remaining %≤ 100%)
IKZF2 substrate protein remaining % (IKZF2; [3]): B (80%< substrate protein remaining %≤ 100%)
IKZF3 substrate protein remaining % (IKZF3; [3]): B (80%< substrate protein remaining %≤ 100%)
Wee1 substrate protein remaining % (WEE1; [3]): A (0% ≤ substrate protein remaining % ≤ 80%)
CK1α substrate protein remaining % (CK1α; [3]): B (80%< substrate protein remaining %≤ 100%)
IKZF 1 substrate protein remaining % (IKZF1; [3]): B (80%< substrate protein remaining %≤ 100%)

SMILES: O=C1CCC(N2Cc3c(CN4CCN(c5nccc(Cl)c5Br)CC4)cccc3C2=S)C(=O)N1 (stereo not shown) [GT-08804, 3-(4-((4-(3-bromo-4-chloropyridin-2-yl)piperazin-1-yl)methyl)-1-thioxoisoindolin-2-yl)piperidine-2,6-dione]
inhibition at 0.5 µM [1]: 40 to 53%
inhibition at 2 µM [1]: 60 to 80%
GSPT1 substrate protein remaining % (GSPT1; [3]): B (80%< substrate protein remaining %≤ 100%)
IKZF2 substrate protein remaining % (IKZF2; [3]): B (80%< substrate protein remaining %≤ 100%)
IKZF3 substrate protein remaining % (IKZF3; [3]): B (80%< substrate protein remaining %≤ 100%)
Wee1 substrate protein remaining % (WEE1; [3]): A (0% ≤ substrate protein remaining % ≤ 80%)
CK1α substrate protein remaining % (CK1α; [3]): B (80%< substrate protein remaining %≤ 100%)
IKZF 1 substrate protein remaining % (IKZF1; [3]): B (80%< substrate protein remaining %≤ 100%)
